Assay results: patent US12023341B2, “Platinum-acridine compounds and methods of treating cancers” (Wake Forest University, priority 2020, dated 2024)

Columns and labels:
[1] = molecular target: T1, hMATE1 (Homo sapiens, UniProt Q96FL8); conditions: reported values; cited from earlier work
T1 sequence (Q96FL8 1-570): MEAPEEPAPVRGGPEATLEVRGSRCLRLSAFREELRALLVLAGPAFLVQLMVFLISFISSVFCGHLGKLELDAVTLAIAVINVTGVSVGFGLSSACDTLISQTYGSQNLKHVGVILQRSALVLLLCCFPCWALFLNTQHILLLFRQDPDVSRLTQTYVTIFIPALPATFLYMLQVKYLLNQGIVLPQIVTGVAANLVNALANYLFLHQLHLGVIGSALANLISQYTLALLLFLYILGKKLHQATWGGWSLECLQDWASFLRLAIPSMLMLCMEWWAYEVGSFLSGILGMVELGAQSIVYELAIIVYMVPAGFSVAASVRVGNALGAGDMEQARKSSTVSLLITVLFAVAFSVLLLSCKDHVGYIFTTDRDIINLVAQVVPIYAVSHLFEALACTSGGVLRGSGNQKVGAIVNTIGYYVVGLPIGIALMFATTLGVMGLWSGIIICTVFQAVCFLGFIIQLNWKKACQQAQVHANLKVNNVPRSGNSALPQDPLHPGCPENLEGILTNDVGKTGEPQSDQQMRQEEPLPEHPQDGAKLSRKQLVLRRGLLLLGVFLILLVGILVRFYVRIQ

[2] = tested on: HCT-116 cells; test: Uptake of compound 1 after epigenetic drugs, confocal fluorescence microscopy; format: cell-based, human; conditions: HCT-116, pre-screen of epigenetic drugs, alone or in combination
Method: We first pre-screened several epigenetic drugs in cultured HCT-116 cells in a multi-well plate format for their ability to increase the uptake of compound 1 using confocal fluorescence microscopy. […] These compounds were then tested again at escalating doses (2.5-20 mM).
Confocal fluorescence microscopy. Cells were seeded and allowed to attach overnight before any treatment. After cells were treated depend on purposes of different experiments, media was removed and dishes were rinsed 3 times with 1 mL of pre-warmed PBS buffer. Cells were then used fixed with 4% formaldehyde in PBS buffer for 15 minutes. Dishes were then washed an additional 3 times with 1 mL of pre-warmed PBS before imaging. Images were collected using a LSM 880 Confocal Microscope (Carl Zeiss Microscopy) using a 63X/1.4NA Plan-Apochromatic objective. The fluorescence of acridine was excited with a 405 nm (15 mW) laser at 4.4% and collected between 405-481 nm. To allow comparative fluorescence intensity analysis, excitation power, pinhole settings, PMT gain, and offset values across and within imaging sessions for each respective channel were not changed. The intensity of acridine-related fluorescence in treated cells was estimated by drawing a region of interest around each cell. A total of more than 100 individual cells across 3 views of 2 independent experiments were analyzed in this fashion. […]

## CCc1nc(N)nc(N)c1-c1ccc(Cl)cc1 [pyrimethamine]
[1]
  Ki: 77 to 93 nM

## CCN(c1cc(-c2ccc(CN3CCOCC3)cc2)cc(C(=O)NCc2c(C)cc(C)[nH]c2=O)c1C)C1CCOCC1 [EPZ-6438]
[2]
  uptake of compound 1 (acridine-associated blue fluorescence): enhanced uptake of compound 1

## CS(=O)(=O)c1ccc(-c2cnc(NCc3ccco3)n3cnnc23)cc1 [EED226]
[2]
  uptake of compound 1 (acridine-associated blue fluorescence): enhanced uptake of compound 1
